In US20120142667A1, “PYRIMIDINE DERIVATIVES AS ZAP-70 INHIBITORS” (priority 2009, published 2012):
Where a name gives a salt, the structure may show the parent alone.

Molecular target: T1, ZAP-70 (Homo sapiens, UniProt P43403)
T1 construct: endogenous in cells; host or cells: cell lysate
T1 sequence (P43403 1-619): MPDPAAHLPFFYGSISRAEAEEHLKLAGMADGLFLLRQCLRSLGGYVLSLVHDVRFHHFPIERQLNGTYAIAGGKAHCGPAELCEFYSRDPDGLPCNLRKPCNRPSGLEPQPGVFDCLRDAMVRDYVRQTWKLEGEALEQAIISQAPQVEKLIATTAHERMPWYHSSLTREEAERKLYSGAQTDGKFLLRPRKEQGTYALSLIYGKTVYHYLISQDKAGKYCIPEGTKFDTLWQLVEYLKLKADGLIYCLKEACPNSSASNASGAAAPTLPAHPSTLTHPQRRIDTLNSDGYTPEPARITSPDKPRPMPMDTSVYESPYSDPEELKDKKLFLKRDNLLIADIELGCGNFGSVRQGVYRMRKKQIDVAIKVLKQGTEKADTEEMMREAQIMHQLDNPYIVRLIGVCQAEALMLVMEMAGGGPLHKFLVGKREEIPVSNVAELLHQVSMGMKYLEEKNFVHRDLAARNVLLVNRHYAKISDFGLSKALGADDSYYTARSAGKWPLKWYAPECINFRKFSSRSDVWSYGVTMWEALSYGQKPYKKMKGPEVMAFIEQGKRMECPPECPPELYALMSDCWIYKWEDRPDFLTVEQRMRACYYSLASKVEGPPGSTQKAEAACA
Experiment: ZAP-70 kinobeads assay
Format: binding
Details: cell lysate
Procedure: The compounds of the present invention as described in the previous examples can be tested in the ZAP-70 kinobeads assay as described (EP-A 1862802 and WO-A 2007/137867). Briefly, test compounds (at various concentrations) and the affinity matrix with the immobilized aminopyrido-pyrimidine ligand 24 are added to cell lysate aliquots and allowed to bind to the proteins in the lysate sample. After the incubation time the beads with captured proteins are separated from the lysate. Bound proteins are then eluted and the presence ZAP-70 is detected and quantified using a specific antibody in a dot blot procedure and the Odyssey infrared detection system.

| Compound | IC50 [nM] |
| --- | --- |
| COC(=O)CCc1ccc(OC)c(Nc2ncc(Cl)c(Nc3ccc(OC)cc3NS(C)(=O)=O)n2)c1 [Example 115, Methyl 3-(3-(5-chloro-4-(4-methoxy-2-(methylsulfonamido)phenylamino)pyrimidin-2-ylamino)-4-methoxyphenyl)propanoate] | 1000 to 10000 |
| COc1ccc(Nc2nc(Nc3cccc(F)c3F)ncc2Cl)c(NS(C)(=O)=O)c1 [Example 60, N-(2-(5-chloro-2-(2,3-difluorophenylamino)pyrimidin-4-ylamino)-5-methoxyphenyl)methanesulfonamide hydrochloride] | 1000 to 10000 |
| COc1ccc(Nc2nc(Nc3ccc(C)cc3C)ncc2Cl)c(NS(C)(=O)=O)c1 [Example 59, N-(2-(5-chloro-2-(2,4-dimethylphenylamino)pyrimidin-4-ylamino)-5-methoxyphenyl)methanesulfonamide hydrochloride] | 100 to 1000 |
| COc1ccc(Nc2nc(Nc3cncc(OC)c3OC)ncc2Cl)c(NS(C)(=O)=O)c1 [Example 81, N-(2-(5-chloro-2-(4,5-dimethoxypyridin-3-ylamino)pyrimidin-4-ylamino)-5-methoxyphenyl)methanesulfonamide] | 1000 to 10000 |
| COc1ccc(Nc2nc(Nc3ccc(F)c(F)c3OC)ncc2Cl)c(NS(C)(=O)=O)c1 [Example 46, N-(2-(5-chloro-2-(3,4-difluoro-2-methoxyphenylamino)pyrimidin-4-ylamino)-5-methoxyphenyl)methanesulfonamide] | 1000 to 10000 |
| COc1ccc(OCCO)cc1Nc1ncc(Cl)c(Nc2ccccc2NS(C)(=O)=O)n1 [Example 109, N-(2-(5-chloro-2-(5-(2-hydroxyethoxy)-2-methoxyphenylamino)pyrimidin-4-ylamino)phenyl)methanesulfonamide] | 100 to 1000 |
| COc1ccc(Nc2nc(Nc3cc(OCC(C)(C)O)ccc3OC)ncc2Cl)c(NS(C)(=O)=O)c1 [Example 104, N-(2-((5-chloro-2-((5-(2-hydroxy-2-methylpropoxy)-2-methoxyphenyl)amino)pyrimidin-4-yl)amino)-5-methoxyphenyl)methanesulfonamide] | 1000 to 10000 |
| COc1ccc(Nc2nc(Nc3cnc(O)cc3OC)ncc2Cl)c(NS(C)(=O)=O)c1 [Example 78, N-(2-(5-chloro-2-(6-hydroxy-4-methoxypyridin-3-ylamino)pyrimidin-4-ylamino)-5-methoxyphenyl)methanesulfonamide] | ≤ 100 |
| CS(=O)(=O)Nc1ccccc1Nc1nc(Nc2ccccc2O)ncc1Br [Example 20, N-(2-(5-bromo-2-(2-hydroxyphenylamino)pyrimidin-4-ylamino)phenyl)methanesulfonamide hydrochloride] | 100 to 1000 |
| COc1ccc(Nc2nc(Nc3ccc(OC)cc3OC)ncc2Cl)c(NS(C)(=O)=O)c1 [Example 34, N-(2-(5-chloro-2-(2,4-dimethoxyphenylamino)pyrimidin-4-ylamino)-5-methoxyphenyl)methanesulfonamide] | 100 to 1000 |
| CCc1ccccc1Nc1ncc(Br)c(Nc2ccccc2NS(C)(=O)=O)n1 [Example 19, N-(2-(5-bromo-2-(2-ethylphenylamino)pyrimidin-4-ylamino)phenyl)methanesulfonamide hydrochloride] | 1000 to 10000 |
| COc1ccc(Nc2nc(Nc3cccc(OC)c3OC)ncc2Cl)c(NS(C)(=O)=O)c1 [Example 44, N-(2-(5-chloro-2-(2,3-dimethoxyphenylamino)pyrimidin-4-ylamino)-5-methoxyphenyl)methanesulfonamide] | 100 to 1000 |
| COc1ccc(Nc2ncc(Cl)c(Nc3ccc(OC)cc3NS(C)(=O)=O)n2)c(C)c1 [Example 35, N-(2-(5-chloro-2-(4-methoxy-2-methylphenylamino)pyrimidin-4-ylamino)-5-methoxyphenyl)methanesulfonamide] | 100 to 1000 |
| COc1ccccc1Nc1ncc(Br)c(Nc2ccccc2NS(C)(=O)=O)n1 [Example 21, N-(2-(5-bromo-2-(2-methoxyphenylamino)pyrimidin-4-ylamino)phenyl)methanesulfonamide hydrochloride] | 100 to 1000 |
| COc1ccc(Nc2nc(Nc3c[nH]c(=O)cc3C)ncc2Cl)c(NS(C)(=O)=O)c1 [Example 82, N-(2-(5-chloro-2-(4-methyl-6-oxo-1,6-dihydropyridin-3-ylamino)pyrimidin-4-ylamino)-5-methoxyphenyl)methanesulfonamide] | 100 to 1000 |
| COc1ccc(Nc2nc(Nc3cc(OCCO)ccc3OC)ncc2Br)c(NS(C)(=O)=O)c1 [Example 117, N-(2-((5-bromo-2-((5-(2-hydroxyethoxy)-2-methoxyphenyl)amino)pyrimidin-4-yl)amino)-5-methoxyphenyl)methanesulfonamide] | ≤ 100 |

| Compound | IC50 [nM] |
| --- | --- |
| COc1ccc(Nc2nc(Nc3cc(F)ccc3OC)ncc2Cl)c(NS(C)(=O)=O)c1 [Example 42, N-(2-(5-chloro-2-(5-fluoro-2-methoxyphenylamino)pyrimidin-4-ylamino)-5-methoxyphenyl)methanesulfonamide] | 100 to 1000 |
| COc1ccc(Nc2nc(Nc3ccc(C)cc3OC)ncc2Cl)c(NS(C)(=O)=O)c1 [Example 62, N-(2-(5-chloro-2-(2-methoxy-4-methylphenylamino)pyrimidin-4-ylamino)-5-methoxyphenyl)methanesulfonamide hydrochloride] | 100 to 1000 |
| CS(=O)(=O)Nc1ccccc1Nc1nc(Nc2ccccc2OC(F)F)ncc1Br [Example 6, N-(2-(5-bromo-2-(2-(difluoromethoxy)phenylamino)pyrimidin-4-ylamino)phenyl)methanesulfonamide] | 1000 to 10000 |
| CS(=O)(=O)Nc1ccccc1Nc1nc(Nc2ccccc2F)ncc1F [Example 1, N-(2-(5-fluoro-2-(2-fluorophenylamino)pyrimidin-4-ylamino)phenyl)methanesulfonamide] | 1000 to 10000 |
| COc1ccc(Nc2nc(Nc3cc(OC)c(C)cc3OC)ncc2Cl)c(NS(C)(=O)=O)c1 [Example 47, N-(2-(5-chloro-2-(2,5-dimethoxy-4-methylphenylamino)pyrimidin-4-ylamino)-5-methoxyphenyl)methanesulfonamide] | 100 to 1000 |
| COc1ccc(Nc2nc(Nc3cc(C)ccc3F)ncc2Cl)c(NS(C)(=O)=O)c1 [Example 49, N-(2-(5-chloro-2-(2-fluoro-5-methylphenylamino)pyrimidin-4-ylamino)-5-methoxyphenyl)methanesulfonamide] | 100 to 1000 |
| COc1ccc(Nc2nc(Nc3cc(OCCN)ccc3F)ncc2Cl)c(NS(C)(=O)=O)c1 [Example 66, N-(2 (2 (5 (2 aminoethoxy)-2-fluorophenylamino)-5-chloropyrimidin-4-ylamino)-5-methoxyphenyl)methanesulfonamide] | 100 to 1000 |
| COc1ccc(Nc2nc(Nc3ccccc3OC)ncc2Cl)c(NS(C)(=O)=O)c1 [Example 51, N-(2-(5-chloro-2-(2-methoxyphenylamino)pyrimidin-4-ylamino)-5-methoxyphenyl)methanesulfonamide hydrochloride] | 100 to 1000 |
| COc1ccc(C)c(Nc2ncc(F)c(Nc3ccccc3NS(C)(=O)=O)n2)c1 [Example 13, N-(2-(5-fluoro-2-(5-methoxy-2-methylphenylamino)pyrimidin-4-ylamino)phenyl)methanesulfonamide] | 1000 to 10000 |
| COc1ccc(Nc2nc(Nc3nc(OC)ccc3Cl)ncc2Cl)c(NS(C)(=O)=O)c1 [Example 99, N-(2-(5-chloro-2-(3-chloro-6-methoxypyridin-2-ylamino)pyrimidin-4-ylamino)-5-methoxyphenyl)methanesulfonamide] | 1000 to 10000 |
| CS(=O)(=O)Nc1ccccc1Nc1nc(Nc2ccccc2Cl)ncc1Br [Example 18, N-(2-(5-bromo-2-(2-chlorophenylamino)pyrimidin-4-ylamino)phenyl)methanesulfonamide hydrochloride] | 1000 to 10000 |
| COc1ccccc1Nc1ncc(F)c(Nc2ccccc2NS(C)(=O)=O)n1 [Example 8, N-(2-(5-fluoro-2-(2-methoxyphenylamino)pyrimidin-4-ylamino)phenyl)methanesulfonamide] | 1000 to 10000 |
| COc1ccc(Nc2nc(Nc3cc(OC)ccc3OC)ncc2Cl)c(NS(C)(=O)=O)c1 [Example 22, N-(2-(5-chloro-2-(2,5-dimethoxyphenylamino)pyrimidin-4-ylamino)-5-methoxyphenyl)methanesulfonamide] | 100 to 1000 |
| COc1ccc(Nc2nc(Nc3ccc(OC)nc3OC)ncc2Cl)c(NS(C)(=O)=O)c1 [Example 36, N-(2-(5-chloro-2-(2,6-dimethoxypyridin-3-ylamino)pyrimidin-4-ylamino)-5-methoxyphenyl)methanesulfonamide] | 100 to 1000 |
| COc1ccc(Nc2nc(Nc3cccc(C)c3C)ncc2Cl)c(NS(C)(=O)=O)c1 [Example 52, N-(2-(5-chloro-2-(2,3-dimethylphenylamino)pyrimidin-4-ylamino)-5-methoxyphenyl)methanesulfonamide] | 100 to 1000 |
| COc1ccc(Nc2nc(Nc3cc(OC)c(OC)cc3Cl)ncc2Cl)c(NS(C)(=O)=O)c1 [Example 53, N-(2-(5-chloro-2-(2-chloro-4,5-dimethoxyphenylamino)pyrimidin-4-ylamino)-5-methoxyphenyl)methanesulfonamide] | 100 to 1000 |
